Where two headings read alike, the source gives them in different places. Blank lines part the entries; values can stand above or below the compound they belong to.
How the values were obtained:
beta-blocking effects = experiment: In vivo beta-blocking potency and duration of action (DOA); conditions: for DOA (duration of action): Tables 2 and 4
Procedure: (§1) The in vitro potency (pA2), in vivo potency and duration of action (DOA) of the compounds of the present invention are recorded in Tables 2 to 4. These pharmacological activities were determined using the methods described in U.S. patent 4,582,855 issued Apr.

ATRIA = molecular target: T1, ATRIA (Cavia porcellus, UniProt H0W3H1); experiment: In vitro potency (pA2), beta-blocking, atria; assay type: cell-based
T1 construct: ATRIA; from tissue
T1 sequence (H0W3H1 1-470): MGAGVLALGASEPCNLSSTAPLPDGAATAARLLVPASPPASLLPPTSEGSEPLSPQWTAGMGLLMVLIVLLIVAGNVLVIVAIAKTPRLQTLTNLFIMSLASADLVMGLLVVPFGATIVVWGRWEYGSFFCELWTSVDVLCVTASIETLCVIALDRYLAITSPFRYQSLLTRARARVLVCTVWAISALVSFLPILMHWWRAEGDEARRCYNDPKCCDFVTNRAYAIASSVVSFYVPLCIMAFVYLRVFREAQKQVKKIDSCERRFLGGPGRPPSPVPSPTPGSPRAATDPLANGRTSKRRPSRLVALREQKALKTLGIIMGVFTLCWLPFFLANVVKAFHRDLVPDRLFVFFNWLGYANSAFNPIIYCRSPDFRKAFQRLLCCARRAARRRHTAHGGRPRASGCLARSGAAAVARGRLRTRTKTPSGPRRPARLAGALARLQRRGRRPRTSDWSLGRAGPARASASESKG
Procedure: as §1

[1] = Ocular bioavailability in rabbits; assay type: in vivo, New Zealand White Rabbits; conditions: for Tmax: rabbit, topical or ocular
Procedure: The ocular bioavailability of Timolol and compound 1 (monopivaloyl ester prodrug of compound 2) was evaluated in New Zealand White Rabbits. Fifty μL of a solution of 0.25% Timolol or 0.5% compound 1 (both in the same vehicle) were administered onto the cornea of both eyes of 48 rabbits (24 rabbits/compound). At 5, 15, 30, 60, 120, 180, 240, and 360 minutes after dosing, 3 rabbits (6 eyes)/compound were killed. The cornea, aqueous humor (AH), iris-ciliary body complex (I-CBC) were quickly removed from the eyes, weighed and processed to determine tissue levels of Timolol or compound 1 and compound 2.

[2] = tested on: isoproterenol-induced changes in heart rate or diastolic blood pressure; experiment: Effect on systemic beta-blockade upon topical administration (isoproterenol-induced changes in heart rate or diastolic blood pressure); assay type: in vivo, Mongrel dogs; conditions: for Diastolic blood pressure (DBP) / Heart rate (HR): Table 1, 0.5%
Procedure: Mongrel dogs were anesthetized and control readings were made at -45 and -30 minutes. Following the -30 minute reading, an infusion of isoproterenol (0.5 μg/kg/min) was begun and maintained during the course of the experiment. Two readings of pretreatment isoproterenol responses were made at […] and at zero minutes.
At zero minutes, a 50 μL sample of test compound was administered topically. […] Heart rate was obtained directly from the strip chart recording.

[3] = Tables 2 and 4, read-out: In-vitro potency pA2 (converted)
[4] = 50 μL, 0.25% solution, single topical application
[5] = 15 min post-treatment, isoproterenol infusion
[6] = 30 min post-treatment, isoproterenol infusion
[7] = 45 min post-treatment, isoproterenol infusion
[8] = 60 min post-treatment (dose), isoproterenol infusion
[9] = 75 min post-treatment, isoproterenol infusion
[10] = 90 min post-treatment, isoproterenol infusion
[11] = 105 min post-treatment, isoproterenol infusion
[12] = 120 min post-treatment (dose), isoproterenol infusion
[13] = 135 min post-treatment, isoproterenol infusion
[14] = 150 min post-treatment, isoproterenol infusion
[15] = 165 min post-treatment, isoproterenol infusion
[16] = 180 min post-treatment, isoproterenol infusion
[17] = Table 1 summary, given as "down"
[18] = Table 3, atria, read-out: pA2 ATRIA (converted)

Compound: Cc1cc(O)c(O)cc1C(=O)OCC(O)CNC(C)(C)CNC(=O)C1CCCCC1 (stereo not shown)
- DOA (duration of action), second value after the slash (beta-blocking effects; Table 2, cell prints 31/>60): > 60 min
- DOA (duration of action) (beta-blocking effects): 31 min
- Kb (ATRIA; [3]): 3.98 nM

Compound: CC(C)(C)NC[C@H](O)COc1nsnc1N1CCOCC1 [Timolol, reference compound]
- Absorption across the cornea ([1]; 0.25% Timolol or 0.5% compound 1, topical): rapidly absorbed across the cornea into the AH and I-CBC
- Area under the concentration time curve (AUC0-240'), AH ([1]; AH, 0-240 min, 0.25% Timolol or 0.5% compound 1): 9,022 ng/100 μL/min
- Peak level in aqueous humor (AH) ([1]; AH, 0.25% Timolol or 0.5% compound 1): 131 ng/100 μL
- Area under the concentration time curve (AUC0-240'), I-CBC ([1]; I-CBC, 0-240 min, 0.25% Timolol or 0.5% compound 1): 533 ng/50 mg/min
- Peak level in iris-ciliary body complex (I-CBC) ([1]; I-CBC, 0.25% Timolol): 58 ng/50 mg
- Area under the concentration time curve (AUC0-240'), cornea ([1]; cornea, 0-240 min, 0.25% Timolol or 0.5% compound 1): 68,293 ng/50 mg/min
- Peak cornea level ([1]; cornea, 50 μL onto cornea, 0.25% Timolol or 0.5% compound 1): 770 ng/50 mg
- Tmax ([1]; aqueous humor, AH, 0.25% Timolol or 0.5% compound 1, read-out: Time of peak level in aqueous humor (AH) (converted)): 30 min
- Tmax ([1]; iris-ciliary body, I-CBC, 0.25% Timolol, read-out: Time of peak level in I-CBC (converted)): 30 min
- Tmax ([1]; cornea, 0.25% Timolol or 0.5% compound 1, read-out: Time of peak level in cornea (converted)): 5 min
- Antagonism of diastolic blood pressure response to isoproterenol [2, 4]: long lasting antagonism
- Effect on heart rate response to isoproterenol [2, 4]: significant inhibitory effect
- Diastolic blood pressure response to isoproterenol ([2]; 50 μL, 0.25% solution, single topical application, from-to): 72-107 mmHg
- Diastolic blood pressure (DBP) ([2]; 0 min, ISO only): 72 mmHg
- Heart rate (HR) ([2]; 0 min, ISO only): 197 bpm
- Diastolic blood pressure (DBP) [2, 5]: 93 mmHg
- Heart rate (HR) [2, 5]: 175 bpm
- Diastolic blood pressure (DBP) [2, 6]: 94 mmHg
- Heart rate (HR) [2, 6]: 158 bpm
- Diastolic blood pressure (DBP) [2, 7]: 96 mmHg
- Heart rate (HR) [2, 7]: 155 bpm
- Diastolic blood pressure (DBP) [2, 8]: 99 mmHg
- Heart rate (HR) [2, 8]: 157 bpm
- Diastolic blood pressure (DBP) [2, 9]: 102 mmHg
- Heart rate (HR) [2, 9]: 157 bpm
- Diastolic blood pressure (DBP) [2, 10]: 103 mmHg
- Heart rate (HR) [2, 10]: 152 bpm
- Diastolic blood pressure (DBP) [2, 11]: 104 mmHg
- Heart rate (HR) [2, 11]: 153 bpm
- Diastolic blood pressure (DBP) [2, 12]: 105 mmHg
- Heart rate (HR) [2, 12]: 157 bpm
- Diastolic blood pressure (DBP) [2, 13]: 107 mmHg
- Heart rate (HR) [2, 13]: 154 bpm
- Diastolic blood pressure (DBP) [2, 14]: 107 mmHg
- Heart rate (HR) [2, 14]: 153 bpm
- Diastolic blood pressure (DBP) [2, 15]: 105 mmHg
- Heart rate (HR) [2, 15]: 153 bpm
- Diastolic blood pressure (DBP) [2, 16]: 107 mmHg
- Heart rate (HR) [2, 16]: 159 bpm
- Heart rate (HR) ([2]; -30 min, baseline): 144 bpm
- Summary: BP ([2]; Table 1 summary, from ISO only to end of experiment): 71-107 mmHg
- Summary: BP change [2, 17]: 35 mmHg
- Summary: HR change [2, 17]: 38 bpm
- Systemic beta-blockade ([2]; four topical applications, 50 μL, 0.25% solution, 60 minute intervals): prolonged systemic beta-blockade

Compound: Cc1cc(O)c(O)cc1C(=O)OCC(O)CNC(C)(C)CNC(=O)N1CCOCC1 (stereo not shown)
- DOA (duration of action) (beta-blocking effects): 60 min
- Kb (ATRIA; [3]): 2 nM

Compound: Cc1cc(O)c(O)cc1C(=O)OCC(O)CNC(C)(C)CNC(=O)C1CCOC1 (stereo not shown) [drawing 25]
- DOA (duration of action) (beta-blocking effects): 49 min
- Kb (ATRIA; [3]): 1.58 nM

Compound: CC(C)(CNC(=O)C1CCCCC1)NCC(O)COC(=O)c1ccc(O)c(O)c1 (stereo not shown)
- Kb (ATRIA; [18]): 6.31 nM

Compound: COc1cc(O)c(O)cc1C(=O)OCC(O)CNC(C)(C)CNC(=O)C(C)C (stereo not shown) [OMe]
- DOA (duration of action) (beta-blocking effects): 30 min

Compound: CCOc1cc(O)c(O)cc1C(=O)OCC(O)CNC(C)(C)CNC(=O)C(C)C (stereo not shown) [OEt]
- DOA (duration of action) (beta-blocking effects): 22 min

Next, values leading:

- Kb (ATRIA; [18]): 20 nM
Compound: Cc1cc(O)c(O)cc1C(=O)OCC(O)CNC(C)(C)CNC(=O)C1CC1 (stereo not shown)

- Kb (ATRIA; [18]): 1.26 nM
Compound: Cc1cc(O)c(O)cc1C(=O)OCC(O)CNC(C)(C)CNC(N)=O (stereo not shown) [Me NH2]

- Kb (ATRIA; [18]): 25.1 nM
Compound: Cc1cc(O)c(O)cc1C(=O)OCC(O)CNC(C)(C)CNC(=O)c1ccoc1 (stereo not shown)

- Kb (ATRIA; [18]): 25.1 nM
Compound: CC(=O)NCC(C)(C)NCC(O)COC(=O)c1cc(O)c(O)cc1C (stereo not shown) [Me CH3]

- Kb (ATRIA; [18]): 5.01 nM
Compound: Cc1cc(O)c(O)cc1C(=O)OCC(O)CNC(C)(C)CNC(=O)C1CCC1 (stereo not shown)

- Kb (ATRIA; [18]): 100 nM
Compound: Cc1cc(O)c(O)cc1C(=O)OCC(O)CNC(C)(C)CNC(=O)Cc1ccccc1 (stereo not shown)

- Kb (ATRIA; [18]): 10 nM
Compound: CCC(=O)NCC(C)(C)NCC(O)COC(=O)c1cc(O)c(O)cc1C (stereo not shown)
